We go through seven compounds from article PMC4504870 (EJNMMI Research, 2015).

The conditions of data set [1]: cited from earlier work.
The conditions of data set [2]: cited from earlier work. This is another data set of the same source.
For data set [3] the following is noted: 90 min after injection, 12 MBq i.v., anesthetized; cited from earlier work.
Data set [4] is described as follows: Radiation dose of i.v. ^68Ga-citrate estimated from ^67Ga-citrate data (literature). Further details: species or system human. To be noted: converted from 0.052 rem/mCi assuming only gamma radiation.
Details of data set [5]: method as in PMID 4743583. To be noted: i.v., estimated from ^67Ga-citrate data, uniform distribution of radioactivity assumed; cited from earlier work.
[6] abbreviates: ref Tang 2003, Pauleit 2003 [22], [23].

Read-outs that look alike come from different tables or passages of the source. Marks after values point to notes of the source that are not given here.

Take `N[C@@H](Cc1cc(O)c(O)cc1[18F])C(=O)O` [6-^18 F-Fluoro-L-Dopa]: in data set [1] (calculated with biological risk weight factors of ICRP 30, ref Harvey 1985, Brown 1998 [20], [21]), the “Animal derived ED” value is 0.0539^b mSv/MBq. In data set [2] (ref Harvey 1985, Brown 1998 [20], [21]), the “Human derived ED” value is recorded as 0.0199 mSv/MBq.
With `[11CH3]Nc1ccc(-c2nc3ccc(O)cc3s2)cc1` [^11C-6-OH-BTA-1], the “Animal derived ED” value in data set [1] (males only, ref Parsey 2005, Scheinin 2007 [17], [18]) is recorded as 0.0065^a mSv/MBq. Besides, the “Human derived ED” value in data set [2] (ref Parsey 2005, Scheinin 2007 [17], [18]) is on record as 0.0045 mSv/MBq.
As for `C[N+](C)([11CH3])CCO` [^11C-Choline], the “Animal derived ED” value in data set [1] (ref Tolvanen 2010 [24]) was 0.0028 mSv/MBq. Moreover, the “Human derived ED” value in data set [2] (ref Tolvanen 2010 [24]) is recorded as 0.0044 mSv/MBq.
In the case of `N[C@@H](Cc1ccc(OCC[18F])cc1)C(=O)O` [^18 F-FET, O-(2-[^18F]fluoroethyl)-L-tyrosine], the “Animal derived ED” value in data set [1] (setting [6]) was 0.0186 mSv/MBq. In addition, the “Human derived ED” value in data set [2] (setting [6]) is 0.0165 mSv/MBq.
As for `[68Ga+3].[Cl-].[Cl-].[Cl-]` [^68Ga-chloride], in data set [3], the “SUV, blood” value is 2.7 ± 0.3; the “SUV, liver” value is 5.9 ± 3.3; the “SUV, lung” value is reported as 1.9 ± 0.8; the “SUV, muscle” value is reported as 0.2 ± 0.03. The “SUV, skin” value in data set [3] is 0.5 ± 0.1.
Turning to `O=C([O-])CC(O)(CC(=O)[O-])C(=O)[O-].[68Ga+3]` [^68Ga-citrate], the “Estimated absorbed dose for total body, converted” value in data set [4] is reported as 0.014 mSv/MBq. Further, in data set [5], the “Estimated absorbed dose for total body” value is on record as 0.052 rads/mCi.
On to “carbon-11-methoxyprogabidic acid [^11C-MPGA]”, for which the “Animal derived ED” value in data set [1] (ref Santens 1998 [19]) is recorded as 0.0048 mSv/MBq. The “Human derived ED” value in data set [2] (ref Santens 1998 [19]) was 0.0053 mSv/MBq.
